Target: human CYCLIC GMP-AMP SYNTHASE (h-cGAS) (Homo sapiens, UniProt Q8N884)
Assay: IFN-luciferase reporter dose response in HT-DNA-stimulated THP-1 cells; LC-MS/MS of intracellular cGAMP in RAW KO-cGAS cells expressing h-cGAS
Format: cell-based

Sequence of human CYCLIC GMP-AMP SYNTHASE (h-cGAS) (Q8N884 whole entry): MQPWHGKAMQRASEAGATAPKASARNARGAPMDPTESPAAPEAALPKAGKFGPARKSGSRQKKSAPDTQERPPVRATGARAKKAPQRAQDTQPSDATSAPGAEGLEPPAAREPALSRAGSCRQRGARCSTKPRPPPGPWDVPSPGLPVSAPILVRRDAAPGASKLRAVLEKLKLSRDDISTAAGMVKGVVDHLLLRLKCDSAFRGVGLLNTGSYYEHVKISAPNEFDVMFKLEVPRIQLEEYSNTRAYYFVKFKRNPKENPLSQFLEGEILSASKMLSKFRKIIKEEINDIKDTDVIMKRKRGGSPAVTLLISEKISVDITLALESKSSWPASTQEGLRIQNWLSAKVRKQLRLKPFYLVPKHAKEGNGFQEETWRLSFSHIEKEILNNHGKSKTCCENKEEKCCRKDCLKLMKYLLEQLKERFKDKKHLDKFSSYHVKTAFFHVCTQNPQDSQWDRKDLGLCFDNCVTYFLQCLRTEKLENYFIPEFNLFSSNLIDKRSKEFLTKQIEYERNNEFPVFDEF

RU.521
IC50: ~800 nM

Source: paper PMC7200739, “Small molecule inhibition of human cGAS reduces total cGAMP output and cytokine expression in cells” (Scientific Reports, 2020)
